Measured values: patent publication US9181575B2 (priority 2008, dated 2015)

System: Legionella pneumophila
Assay type: cell-based
Conditions: after THPS 15 mg/L, 60 min; 0.1% pyruvate and/or 1% glutamic acid in BCYE

Structure (SMILES)	ratio of number of culturable Legionella on supplemented medium to standard medium (BCYE)
N[C@@H](CCC(=O)O)C(=O)O [glutamic acid]	0.2
CC(=O)C(=O)O [pyruvate]	45
